Test results reported in the supplement of paper PMC8960247.
± gives the standard error.

How the values were obtained:
621-102 (TSC2-deficient) = test: relative viability vs DMSO; higher = less cytotoxic; conditions: serum: 10% FBS, 72 h
621-103 (TSC2-rescued) = test: as above; conditions: serum: 10% FBS, 72 h
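Further: immortalized renal angiomyolipoma cells stably carrying empty vector or TSC2, dosed in 384-well plates in DMEM, viability normalized to vehicle-treated wells within each plate.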

SMILES	relative viability (621-102 (TSC2-deficient); 0.0001 µM) [%]	relative viability (621-102 (TSC2-deficient); 0.001 µM) [%]	relative viability (621-102 (TSC2-deficient); 0.01 µM) [%]	relative viability (621-102 (TSC2-deficient); 0.1 µM) [%]	relative viability (621-102 (TSC2-deficient); 1 µM) [%]	relative viability (621-102 (TSC2-deficient); 10 µM) [%]	relative viability (621-103 (TSC2-rescued); 0.0001 µM) [%]	relative viability (621-103 (TSC2-rescued); 0.001 µM) [%]	relative viability (621-103 (TSC2-rescued); 0.01 µM) [%]	relative viability (621-103 (TSC2-rescued); 0.1 µM) [%]	relative viability (621-103 (TSC2-rescued); 1 µM) [%]	relative viability (621-103 (TSC2-rescued); 10 µM) [%]
O=C(c1ccc(/C=C/c2n[nH]c3ccccc23)cc1)N1CCNCC1 [KW 2449]	103 ± 1.6	92.5 ± 3.8	93.7 ± 0.96	94.1 ± 1.3	95.02 ± 0.93	37.58 ± 0.36	102.2 ± 0.34	101.3 ± 0.97	101.8 ± 0.59	102 ± 1.6	96.784 ± 0.018	15.1 ± 0.84
CCc1nc(N)nc(N)c1-c1ccc(Cl)cc1 [Pyrimethamine]	99.7 ± 4.9	108.7 ± 0.4	95.6 ± 3.3	95.7 ± 2.5	100 ± 1.8	93.14 ± 0.75	105 ± 2	105.5 ± 0.94	104 ± 3.5	101 ± 2	104.3 ± 0.2	102 ± 4.4
C#Cc1cccc(Nc2ncnc3cc(OCCOC)c(OCCOC)cc23)c1 [Erlotinib]	106.7 ± 1	102 ± 3.1	107.7 ± 1	103 ± 1.4	97.8 ± 1.9	96.7 ± 3.3	99.81 ± 0.92	101 ± 1.1	104 ± 2.2	101.3 ± 0.39	101 ± 2.7	96.6 ± 3.3
NC(=O)[C@@H](CCC(F)(F)F)N(Cc1ccc(-c2ncon2)cc1F)S(=O)(=O)c1ccc(Cl)cc1	109.7 ± 0.27	108 ± 2.7	124 ± 2.7	116.1 ± 0.31	117 ± 2.9	108 ± 2.9	103 ± 1.2	102 ± 1.3	101.6 ± 0.3	103.4 ± 0.95	103.76 ± 0.01	102 ± 1.9
COC[C@@H](c1ccc(C(F)(F)F)cc1)N1CCN(C2(C)CCN(C(=O)c3c(C)ncnc3C)CC2)C[C@@H]1C [Vicriviroc Malate]	100.4 ± 0.12	106 ± 2.8	113 ± 2.9	108 ± 3.2	100 ± 1.5	100.24 ± 0.061	102 ± 3.4	99.95 ± 0.79	101 ± 2.1	99.04 ± 0.74	96.3 ± 1.4	97.62 ± 0.55
CNC(=O)c1ccccc1Sc1ccc2c(/C=C/c3ccccn3)n[nH]c2c1 [Axitinib]	102 ± 3.9	104 ± 1.7	113 ± 0.88	109 ± 3.8	103.5 ± 0.7	55 ± 0.8	86.7 ± 7.2	97.7 ± 3.4	100 ± 0.42	102 ± 1.1	98.7 ± 1.9	40.7 ± 1.5
Cc1cc(C(C)Nc2ccccc2)c2nc(N3CCOCC3)cc(=O)n2c1 (configuration not stated) [TGX-221]	94.1 ± 1.7	106 ± 7.4	114 ± 3.3	112 ± 3.6	114 ± 4	101 ± 1.8	98.3 ± 0.45	98.8 ± 0.21	97.7 ± 2	98.8 ± 1.6	99.4 ± 1.5	102 ± 1.8
CC[N+](CC)(CC)CCOc1cccc(OCC[N+](CC)(CC)CC)c1OCC[N+](CC)(CC)CC [Gallamine triethiodide (Flaxedil)]	105 ± 2.9	109.1 ± 0.49	103 ± 3.5	102.6 ± 0.87	103.6 ± 0.17	89 ± 2	99.9 ± 4.2	87.2 ± 3	103 ± 1.7	92.4 ± 3.8	87.3 ± 1.9	99.6 ± 4.1
CC[C@@]1(O)C(=O)OCc2c1cc1n(c2=O)Cc2cc3ccccc3nc2-1 [Camptothecine]	104.3 ± 0.41	106 ± 1.9	101 ± 2.4	57.8 ± 2.9	12 ± 0.68	19.5 ± 1.7	100.6 ± 0.37	100.7 ± 0.47	96.3 ± 4.5	44.6 ± 2.1	10.3 ± 0.36	17.79 ± 0.099
FC(F)c1nc2ccccc2n1-c1nc(N2CCOCC2)nc(N2CCOCC2)n1 [ZSTK474]	88.8 ± 4.7	94.9 ± 1.6	89.77 ± 0.68	95.7 ± 2	91.2 ± 3.4	52.1 ± 1.8	101 ± 2.4	97 ± 3.6	103.8 ± 0.79	105.3 ± 0.49	96.3 ± 2.2	49.6 ± 1.3
O=c1c(O)c(-c2ccc(O)c(O)c2)oc2cc(O)cc(O)c12 [Quercetin (Sophoretin)]	64.8 ± 5.1	65.4 ± 7.3	68.4 ± 9.3	75 ± 10	78.2 ± 10	73.3 ± 5	87 ± 2	79.1 ± 1.4	88.6 ± 3.3	95.2 ± 6.2	89.4 ± 4.9	86.8 ± 1.1
CCCc1nc(C)c2c(=O)nc(-c3cc(S(=O)(=O)N4CCN(CC)CC4)ccc3OCC)[nH]n12 [Vardenafil (Vivanza)]	103 ± 2.4	104 ± 1.2	104 ± 3.8	104.8 ± 0.49	96.25 ± 0.9	97.2 ± 1.1	101 ± 2.4	103.3 ± 0.7	105 ± 1.5	104 ± 1.1	98.5 ± 4.4	98.6 ± 1.7
Oc1nc(-c2ccc(C(F)(F)F)cc2)nc2c1CSCC2 [XAV-939]	116 ± 0.67	112 ± 2.7	116 ± 5.5	120 ± 1.9	119.9 ± 0.91	102.42 ± 0.045	99.56 ± 0.24	104 ± 2.7	102 ± 2.3	102 ± 2	102 ± 1.7	102 ± 1.7
COc1cc2nccc(Oc3ccc(NC(=O)Nc4cc(C)on4)c(Cl)c3)c2cc1OC [AV-951(Tivozanib)]	102 ± 2	96.6 ± 3.2	110 ± 5.9	111 ± 2	107 ± 2.7	77.33 ± 0.38	101.2 ± 0.14	104 ± 1.3	102.2 ± 0.42	99.26 ± 0.52	102 ± 2.4	48.2 ± 1.3
C/C(=C\C(=O)Nc1ccccc1C(=O)O)c1ccc2ccccc2c1 [BIBR1532]	93.51 ± 0.69	98.3 ± 0.93	112 ± 5.2	105.7 ± 1	95.36 ± 0.93	87.4 ± 2.7	110 ± 3.1	98.3 ± 5	104.2 ± 0.53	103 ± 1.3	99.8 ± 0.11	96.4 ± 1.2
CC1(COc2ccc3c(c2)ncn3-c2ccc3cccc(N4CCC(N)CC4)c3n2)COC1	109 ± 1.2	98.7 ± 1.8	109 ± 4.7	98.43 ± 0.71	67.8 ± 1.8	2.96 ± 0.37	96 ± 0.22	111.5 ± 0.64	110 ± 3.6	106 ± 3.9	77.4 ± 2.8	4.95 ± 0.59
